Series [1] concerns dopamine receptor. The note with it: in vitro; cited from earlier work.
In series [2] the test system is neurogenic bladder, unstable bladder, and nervous pollakisuria. The note with it: Nishinihon J. Urol., 54, 1472 and 1820 (1992); cited from earlier work.
In series [3] the test system is rhythmic bladder contractions (micturition reflex). Description: Inhibitory effect on rhythmic bladder contractions (micturition reflex). It is filed as in vivo, Female Std-Wistar rats. The following applies: 2 h; i.d.; two hours; rat; read-out: ED50, inhibitory effect on contractile frequency. As for the experimental part: Inhibitory effect on rhythmic bladder contractions (micturition reflex)
The experiment was carried out according to the method of Maggi, C. […] It is generally accepted that the rhythmic bladder contractions evoked by instillation of saline solution into the bladder are mediated via the micturition reflex pathway like that of natural urination.
Female Std-Wistar rats weighing 160-190 g were used in groups of 3-4 animals. Under urethane anesthesia (1 g/kg, s.c.), both ureters were tied and cut at the side of kidney after a mid line incision of the abdomen. A cannula, connected to a syringe and a pressure transducer, was inserted into the bladder via the external urethral orifice and ligated around the proximal urethra. The animal was allowed to stay for about 30 minutes after the operation. The bladder was slowly filled with warm saline solution (0.4-1 ml) by means of a syringe until rhythmic contractions were induced. The change of the intravesical pressure was recorded on a recorder via a pressure transducer. After the rhythmic contractions became constant, test compounds dissolved or suspended in 0.5% aqueous tragacanth solution were administered via the cannula inserted for intraduodenal administration. The effect of each compound on the contractile frequency was investigated every 15 minutes till two hours after the administration.
The inhibitory rate on the contractile frequency (two hours) was expressed as the mean value of the inhibitory rates at an every 15-minute interval for two hours after the administration, which was determined based on the contractile frequency for 15 minutes before the administration.

The test system of series [4] is bladder contractions induced by stimulation of the pelvic nerve, central cut end. Kind of series: Effect on the bladder contractions induced by stimulation of the pelvic nerve (central cut end). It is filed as in vivo, Male Std-Wistar rats. The note with it: 5 mg/kg i.v. (jugular vein), mean±SEM. The source says:
(§1) Effect on the bladder contractions induced by stimulation of the pelvic nerve
(§2) Male Std-Wistar rats weighing 250-350 g were used. Under urethane anesthesia (1 g/kg, i.p.), both ureters were tied and cut at the side of kidney after a mid line incision of the abdomen. When the peripheral end of the pelvic nerve was stimulated, one side of the pelvic nerve was cut. When the central cut end of the nerve was stimulated, one side of the pelvic nerve was cut like in the peripheral end stimulation after both the hypogastric nerves were cut. Then, the bladder was exposed, the cannula connected to a syringe and a pressure transducer was inserted into the bladder via a small incision at an apex of the dome, and the proximal urethra was then ligated. Fifteen minutes after the operation, warm saline solution of an amount (0.1-0.2 ml) being small enough not to cause rhythmic contraction was infused into the bladder using a syringe. The change of the intravesical pressure was recorded on a recorder via a pressure transducer. The pelvic nerve was stimulated at the peripheral cut end or the central one by a pair of platinum electrodes with pulse of 1 msec duration, 3 v strength and a frequency of 10 Hz (for peripheral) or 5 v strength and a frequency of 20 Hz (for central), for 5 seconds every 2 minutes. Test compounds dissolved in distilled water were injected at a dose of 5 mg/kg via the cannula inserted into the jugular vein.
(§3) Each value in the table is mean±standard error of mean in 3-4 animals.

Series [5] concerns bladder contractions induced by stimulation of the pelvic nerve, peripheral cut end. Kind of series: Effect on the bladder contractions induced by stimulation of the pelvic nerve (peripheral cut end). It is filed as in vivo, Male Std-Wistar rats. The note with it: 5 mg/kg i.v. (jugular vein), mean±SEM.
Text: as §1, §2, §3

Series [6] deals with exploratory behavior. Kind of series: Inhibitory effect on exploratory behavior. It is filed as in vivo, Male Std-Wistar rats. The following applies: 500 mg/kg p.o.; one hour after administration; rat. As for the experimental part: Inhibitory effect on exploratory behavior
Male Std-Wistar rats weighing 150-200 g were used in groups of 5 animals. One hour after oral administration of test compounds suspended in 0.5% aqueous tragacanth solution, animals were individually placed in a test cage (23×35×30 cm) on an Animex activity meter (Farad Co., Sweden). Immediately thereafter, locomotor counting was started and lasted for three minutes. The mean value of the exploratory behavior (count/3 minutes) in the test compound-treated groups were determined, and then inhibitory effect of each test compound was calculated as compared with that of the control group (0.5% aqueous tragacanth solution-treated group). The results are shown in Table 5 along with the results of Experiments 4 and 5.

Series [7] deals with polysynaptic spinal reflex. Description: Inhibitory effect on polysynaptic spinal reflex. The following applies: iv; rat; read-out: Inhibitory effect on polysynaptic spinal reflex, ID50. It is filed as in vivo, Male Std-Wistar rats. As for the experimental part: Inhibitory effect on polysynaptic spinal reflex
The experiment was performed according to the method of Itoh, et al. [Japan J. Parmacol.,23, 1125 (1982)]. Male Std-Wistar rats weighing 250-350 g were used in groups of 4-6 animals. Under anesthesia with combined i.p. injection of urethane (400 mg/kg) and α-chloralose (50 mg/kg), the rat fixed in a stereotaxic apparatus was clamped at the spine and tibial bane. A concentric needle electrode was inserted into the left gastrocnemius muscle, and the central end of the ipsilateral common peroneal nerve at the same side was supramaximally stimulated by an electrical stimulator (rectangular pulse,0.1 msec,0.1 Hz). Test compounds dissolved in distilled water were injected via a cannula inserted into the right femoral vein, and the evoked electromyogram was periodically recorded (2, 5, 10, 20 and 30 minutes after the injection). […] The results are shown in Table 5 along with the results of Experiments 3 and 5.

On to `C1=C(CCN2CCCCC2)CCc2ccccc21.Cl` [1-[2-(3,4-dihydro-2-naphthalenyl)ethyl]piperidine hydrochloride], for which the “Affinity for dopamine receptor” value in series [1] is recorded as “quite low affinity”.
In the case of `CCc1ccc(C(=O)C(C)CN2CCCC2)cc1.Cl` (stereo not shown) [Compound A, 1-(4-ethylphenyl)-2-methyl-3-(1-pyrrolidinyl)-1-propanone hydrochloride, reference compound], the “Efficacy for neurogenic bladder, unstable bladder, nervous pollakisuria” value in series [2] is “effective for the symptoms such as neurogenic bladder, unstable bladder, and nervous pollakisuria”. Moreover, the ED50 in series [3] was 34.8 mg/kg; in series [7] it was 4.22 mg/kg. Further, in series [4] (2 min, * p<0.05), the “Inhibitory rate on the contraction caused by the stimulation of the central cut end, 2 min.” value is on record as 21.0 ± 10.7%. In series [4] (4 min, * p<0.05, ** <0.01), the “Inhibitory rate on the contraction caused by the stimulation of the central cut end, 4 min.” value was found to be 22.5 ± 7.3%. The “Inhibitory rate on the contraction caused by the stimulation of the central cut end, 10 min.” value in series [4] (10 min, ** <0.01) came to 29.3 ± 7.7%. Further, the “Inhibitory rate on the contraction caused by the stimulation of the central cut end, 20 min.” value in series [4] (20 min, * p<0.05, ** <0.01) was 40.6 ± 8.8%. In addition, the “Inhibitory rate on the contraction caused by the stimulation of the peripheral cut end, 2 min.” value in series [5] (2 min) is 6.2 ± 5.1%. Further, in series [5] (4 min), the “Inhibitory rate on the contraction caused by the stimulation of the peripheral cut end, 4 min.” value is on record as 14.7 ± 4.0%. In addition, the “Inhibitory rate on the contraction caused by the stimulation of the peripheral cut end, 10 min.” value in series [5] (10 min, * p<0.05) is given as 25.1 ± 4.2%. In series [5] (20 min, * p<0.05), the “Inhibitory rate on the contraction caused by the stimulation of the peripheral cut end, 20 min.” value is 31.6 ± 2.5%. Also, the “Inhibitory rate, exploratory behavior” value in series [6] is recorded as 28.3%.

Source of the values: patent publication US5847159A, “1-[ω-(3,4-dihydro-2-naphthalenyl)alkyl]-cyclic amine derivatives, process for preparing the same, and pharmaceutical composition containing the same” (priority 1995, dated 1998).
